{"source": "patent US20210260070A1", "about": "“LYSIN CF-301 RESENSITIZES METHICILLIN-RESISTANT STAPHYLOCOCCUS AUREUA (MRSA) TO PENICILLIN DERIVATIVES AND FIRST GENERATION CEPHALOSPORINS” (priority 2018, published 2021)", "type_in_all_cases": "cell-based, Staphylococcus aureus", "key": {"[1]": {"test_system": "nine different MRSA strains", "experiment": "Broth microdilution checkerboard assays, summary over the panel", "conditions": "each of the nine MRSA strains; breakpoint MIC ≤2 sensitive", "excerpt": "(§1) In some embodiments, the present lysin polypeptides reduce the minimum inhibitory concentration (MIC) of an antibiotic. Any known method to assess MIC may be used. In some embodiments, a checkerboard assay is used to determine the effect of a lysin on antibiotic concentration. The checkerboard assay is based on a modification of the CLSI method for MIC determination by broth microdilution (See Clinical and Laboratory Standards Institute (CLSI), CLSI. 2015. Methods for Dilution Antimicrobial Susceptibility Tests for Bacteria That Grow Aerobically; Approved Standard-10th Edition. Clinical and Laboratory Standards Institute, Wayne, Pa., which is herein incorporated by reference in its entirety and Ceri et al. 1999. J. Clin. Microbiol. 37: 1771-1776, which is also herein incorporated by reference in its entirety).\n(§2) Checkerboards are constructed by first preparing columns of e.g., a 96-well polypropylene microtiter plate, wherein each well has the same amount of antibiotic diluted 2-fold along the horizontal axis. […] The lysin and antibiotic dilutions are then combined, so that each column has a constant amount of antibiotic and doubling dilutions of lysin, while each row has a constant amount of lysin and doubling dilutions of antibiotic. Each well thus has a unique combination of lysin and antibiotic. Bacteria are added to the drug combinations at a given concentration. […] Summation fractional inhibitory concentrations (ΣFICs) are calculated for each drug and the minimum ΣFIC value (ΣFICmin) is used to determine the effect of the lysin/antibiotic combination.\nA step-wise approach was used to evaluate PlySs2 as a resensitizing agent. First, broth microdilution checkerboard assays were used to determine fractional inhibitory concentration index (FICI) values for combinations of PlySs2 with three β-lactam antibiotics [oxacillin (OXA), nafcillin (NAF), and cefazoline (CFZ)] against nine different MRSA strains. […] Representative single agent MICs are also shown, determined for each agent alone (initial) and in combinations (final). […]"}, "MRSA strain JMI 227": {"test_system": "MRSA strain JMI 227", "experiment": "Broth microdilution checkerboard assay", "parameters": "unit not given here", "excerpt": "as §1, §2\n(§3) A step-wise approach was used to evaluate PlySs2 as a resensitizing agent. First, broth microdilution checkerboard assays were used to determine fractional inhibitory concentration index (FICI) values for combinations of PlySs2 with three β-lactam antibiotics [oxacillin (OXA), nafcillin (NAF), and cefazoline (CFZ)] against nine different MRSA strains. Data from the checkerboard assays were generated to determine the interaction and potency of PlySs2 with the β-lactam antibiotics in comparison to their individual activities. This comparison is represented as the FICI value, whereby values of ≤0.5 are consistent with synergy, values of >0.5-<1 are highly-additive, values of 1-≤2 are indifferent, and values >2 are antagonistic. Representative single agent MICs are also shown, determined for each agent alone (initial) and in combinations (final). Resensitization occurs in synergistic combinations in which the β-lactam antibiotic MIC values fall below established breakpoints, e.g. a MIC value of ≤2 for β-lactam-sensitive isolates, a MIC value of ≥4 for β-lactam-resistant isolates. See Clinical and Laboratory Standards Institute (CLSI), CLSI. 2019. M100 Performance Standards for Antimicrobial Susceptibility Testing; 29th Edition. Clinical and Laboratory Standards Institute, Wayne, Pa."}, "MRSA strain JMI 1280": {"test_system": "MRSA strain JMI 1280", "experiment": "Broth microdilution checkerboard assay", "parameters": "unit not given here", "excerpt": "as §1, §2, §3"}, "MRSA strain JMI4789": {"test_system": "MRSA strain JMI4789", "experiment": "Broth microdilution checkerboard assay", "parameters": "unit not given here", "excerpt": "as §1, §2, §3"}, "[2]": {"test_system": "MRSA isolates from valvular vegetations", "experiment": "MIC values of MRSA isolates recovered from valvular vegetations after PlySs2 treatment (ex vivo)", "experimental": "(§4) An ex vivo analysis was performed on tissue samples recovered after PlySs2 treatment in a standard rabbit model of MRSA infective endocarditis (IE), as disclosed in Xiong et al., Comparative efficacy of telavancin and daptomycin in experimental endocarditis due to multi-clonotype MRSA strains, J. ANTIMIC. CHEMO. (2016); 71(1):2890-94. The standard rabbit IE model was used to confirm the impact of PlySs2 treatment on oxacillin MICs. Four days after treatment with a single-dose of PlySs2 (0.18 mg/kg to 1.4 mg/kg) in the IE model, isolates were recovered from valvular vegetations and plated on TSAB (non-selective condition, Tables 3 and 4) and TSAB supplemented with PlySs2 over a range of concentrations (selective conditions, Tables 5 and 6). MIC values of the MRSA isolates were determined for both PlySs2 and oxacillin. Tables 3 and 4 below show the MICs calculated for PlySs2 and oxacillin, respectively, for valvular vegetations subject to the non-selective conditions."}, "S. aureus strain MW2": {"test_system": "S. aureus strain MW2", "experiment": "MIC of parental strain", "conditions": "Staphylococcus aureus, MW2", "experimental": "as §4"}, "[3]": {"conditions": "in combination PlySs2 + OXA (final), * = Resensitization"}}}
{"smiles": "Cc1onc(-c2ccccc2)c1C(=O)N[C@@H]1C(=O)N2[C@@H]1SC(C)(C)[C@@H]2C(=O)O", "note": "[OXA, oxacillin]", "values": [{"measurement": "MIC in synergistic combination with PlySs2 relative to breakpoint", "setting": "[1]", "value": "below breakpoint values"}, {"measurement": "MICinitial", "setting": "MRSA strain JMI 227; each agent alone (initial)", "value": 16}, {"measurement": "MICfinal", "setting": "MRSA strain JMI 227; [3]", "value": "1*"}, {"measurement": "MICinitial", "setting": "MRSA strain JMI 1280; each agent alone (initial)", "value": 256}, {"measurement": "MICfinal", "setting": "MRSA strain JMI 1280; [3]", "value": "1*"}, {"measurement": "MICinitial", "setting": "MRSA strain JMI4789; each agent alone (initial)", "value": 64}, {"measurement": "MICfinal", "setting": "MRSA strain JMI4789; [3]", "value": "2*"}, {"measurement": "MIC", "setting": "[2]; Staphylococcus aureus, MRSA, read-out: Oxacillin MIC after PlySs2 exposure", "value": "< 2", "unit": "µg/mL"}, {"measurement": "Reduction in oxacillin MIC values", "setting": "[2]; isolates after PlySs2 exposure in rabbit IE, selective conditions", "value": "greater than 16 fold"}, {"measurement": "MIC", "setting": "S. aureus strain MW2", "value": 32, "unit": "µg/mL"}]}
